Test results taken from patent US11098043B2, “Certain imidazopyridines as cyclic AMP response element binding (CREB) binding protein (CBP) inhibitors and uses thereof” (University of Massachusetts, priority 2017, dated 2021).

Experiments:
CBP bromodomain = biological target: T1, CBP bromodomain (Homo sapiens, UniProt Q92793); assay: AlphaScreen in vitro binding assay with CBP; details: for IC50: AlphaScreen, isolated CBP bromodomain, means of at least two determinations; for Selectivity Value [BRD4(1) IC50 (μM)/CBP IC50 (μM)]: ratio BRD4(1) IC50 / CBP IC50
T1 construct: docked complex of Compound 21 with CBP bromodomain
Experimental: (§1) To determine the binding selectivity of compounds provided, AlphaScreen in vitro binding assays were performed with either CBP or BRD4.
(§2) Assays were performed with minor modifications from the manufacturer's protocol (Perkin Elmer, USA). All reagents were diluted in AlphaScreen™ buffer (50 mM HEPES, 150 mM NaCl, 0.01% v/v Tween-20, 0.1% w/v BSA, pH 7.4). After addition of Alpha beads to master solutions, all subsequent steps were performed under low light conditions. A 2× solution of components with final concentrations of His-BRD4(1) at 20 nM or His-CBP at 50 nM, Ni-coated Acceptor bead at 10 μg/ml, and biotinylated-JQ1 at 10 nM or biotinylated peptide at 100 nM was added in 10 μL to 384-well plates (AlphaPlate-384, PerkinElmer) using an EL406 liquid handler (Biotek, USA). Plates were spun down at 1000 rpm. A 10-point 1: √{square root over (sqrt(10))} serial dilution of compounds in DMSO was prepared at 200× the final concentration. 100 nL of compound from these stock plates were added by pin transfer using a Janus Workstation (PerkinElmer). A 2× solution of streptavidin-coated donor beads with a final concentration of 10 μg/ml was added in a 10 μL volume. The plates were spun down again at 1000 rpm and sealed with foil to prevent light exposure and evaporation. The plates were then incubated at room temperature for 1 hour and read on an Envision 2104 (PerkinElmer) using the manufacturer's protocol. IC50 values were calculated using a 4-parameter logistic curve in Prism 6 (GraphPad Software, USA) after normalization to DMSO-treated negative control wells.

BRD4(1) bromodomain = biological target: T2, BRD4(1) bromodomain (Homo sapiens, UniProt O60885); assay: AlphaScreen in vitro binding assay with BRD4; details: isolated BRD4 bromodomain, means of at least two determinations
T2 construct: final concentrations of His-BRD4(1) at 20 nM
Experimental: as §1
as §2, with “A 2× solution of components with final concentrations of His-BRD4(1) at 20 nM or His-CBP at 50 nM, Ni-coated Acceptor bead at 10 μg/ml, and biotinylated-JQ1 at 10 nM or biotinylated peptide at 100 nM was added in 10 μL to 384-well plates (AlphaPlate-384, PerkinElmer) using an EL406 liquid handler (Biotek, USA).” left out

T1 sequence (Q92793 1085-1192 limits assumed): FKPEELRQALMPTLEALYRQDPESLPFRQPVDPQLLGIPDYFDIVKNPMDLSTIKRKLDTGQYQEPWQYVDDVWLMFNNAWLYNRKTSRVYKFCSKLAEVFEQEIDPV

COc1ccc(-c2nc3cc(C)cc(C)n3c2NC23CC4CC(CC(C4)C2)C3)cc1 [Compound 1, N-((3s,5s,7s)-adamantan-1-yl)-2-(4-methoxyphenyl)-5,7-dimethylimidazo[1,2-a]pyridin-3-amine]
IC50 (CBP bromodomain): 16.1 µM
Selectivity Value [BRD4(1) IC50 (μM)/CBP IC50 (μM)] (CBP bromodomain): >3

COc1ccc(-c2nc3cc(-c4c(C)noc4C)ccn3c2NC23CC4CC(CC(C4)C2)C3)cc1 [Compound 2]
IC50 (CBP bromodomain): 2.22 µM
Selectivity Value [BRD4(1) IC50 (μM)/CBP IC50 (μM)] (CBP bromodomain): >23

COc1ccc(-c2nc3cc(-c4c(C)noc4C)ccn3c2NC2CCCCC2)cc1 [Compound 3]
IC50 (CBP bromodomain): 14.2 µM
Selectivity Value [BRD4(1) IC50 (μM)/CBP IC50 (μM)] (CBP bromodomain): >4

Cc1noc(C)c1-c1ccn2c(NCC(=O)OC(C)(C)C)c(CCc3ccccc3)nc2c1 [Compound 4]
IC50 (CBP bromodomain): 7.83 µM
Selectivity Value [BRD4(1) IC50 (μM)/CBP IC50 (μM)] (CBP bromodomain): >6

Cc1noc(C)c1-c1ccn2c(NC3CCCCC3)c(CCc3ccccc3)nc2c1 [Compound 5, N-cyclohexyl-7-(3,5-dimethylisoxazol-4-yl)-2-phenethylimidazo[1,2-a]pyridin-3-amine]
IC50 (BRD4(1) bromodomain): 7.43 µM
IC50 (CBP bromodomain): 0.718 µM
Selectivity Value [BRD4(1) IC50 (μM)/CBP IC50 (μM)] (CBP bromodomain): 10

Cc1noc(C)c1-c1ccn2c(NC34CC5CC(CC(C5)C3)C4)c(CCc3ccccc3)nc2c1 [Compound 6]
IC50 (BRD4(1) bromodomain): 3.38 µM
IC50 (CBP bromodomain): 0.507 µM
Selectivity Value [BRD4(1) IC50 (μM)/CBP IC50 (μM)] (CBP bromodomain): 7

COc1ccc(-c2nc3cc(-c4c(C)noc4C)ccn3c2NCC(=O)OC(C)(C)C)cc1 [Compound 7]
IC50 (BRD4(1) bromodomain): 2.96 µM
IC50 (CBP bromodomain): 1.17 µM
Selectivity Value [BRD4(1) IC50 (μM)/CBP IC50 (μM)] (CBP bromodomain): 3

COc1ccc(-c2nc3cc(C)cc(C)n3c2NC(C)(C)CC(C)(C)C)cc1 [Compound 8, 2-(4-methoxyphenyl)-5,7-dimethyl-N-(2,4,4-trimethylpentan-2-yl)imidazo[1,2-a]pyridin-3-amine]
IC50 (CBP bromodomain): 16.3 µM
Selectivity Value [BRD4(1) IC50 (μM)/CBP IC50 (μM)] (CBP bromodomain): >3

CN1Cc2cc(-c3ccn4c(NC5CCCCC5)c(CCc5ccccc5)nc4c3)ccc2NC1=O [Compound 10]
IC50 (BRD4(1) bromodomain): 7.55 µM
IC50 (CBP bromodomain): 8.12 µM
Selectivity Value [BRD4(1) IC50 (μM)/CBP IC50 (μM)] (CBP bromodomain): <1

Cc1[nH]nc2ccc(-c3ccn4c(NC5CCCCC5)c(CCc5ccccc5)nc4c3)cc12 [Compound 11]
IC50 (BRD4(1) bromodomain): 0.51 µM
IC50 (CBP bromodomain): 8.02 µM
Selectivity Value [BRD4(1) IC50 (μM)/CBP IC50 (μM)] (CBP bromodomain): <1

Cc1noc2ccc(-c3ccn4c(NC5CCCCC5)c(CCc5ccccc5)nc4c3)cc12 [Compound 12]
IC50 (BRD4(1) bromodomain): 3.03 µM
IC50 (CBP bromodomain): > 50 µM
Selectivity Value [BRD4(1) IC50 (μM)/CBP IC50 (μM)] (CBP bromodomain): <1

Cc1noc(C)c1-c1ccn2c(NC(C)(C)CC(C)(C)C)c(CCc3ccccc3)nc2c1 [Compound 13, 7-(3,5-dimethylisoxazol-4-yl)-2-phenethyl-N-(2,4,4-trimethylpentan-2-yl)imidazo[1,2-a]pyridin-3-amine]
IC50 (BRD4(1) bromodomain): 2.77 µM
IC50 (CBP bromodomain): 1.88 µM
Selectivity Value [BRD4(1) IC50 (μM)/CBP IC50 (μM)] (CBP bromodomain): 1

Cc1noc(C)c1-c1ccn2c(NC(C)(C)C)c(CCc3ccccc3)nc2c1 [Compound 14, N-(tert-butyl)-7-(3,5-dimethylisoxazol-4-yl)-2-phenethylimidazo[1,2-a]pyridin-3-amine]
IC50 (BRD4(1) bromodomain): 5.64 µM
IC50 (CBP bromodomain): 0.956 µM
Selectivity Value [BRD4(1) IC50 (μM)/CBP IC50 (μM)] (CBP bromodomain): 6

COc1ccc(CCc2nc3cc(-c4c(C)noc4C)ccn3c2NCC(=O)OC(C)(C)C)cc1 [Compound 15]
IC50 (BRD4(1) bromodomain): 4.22 µM
IC50 (CBP bromodomain): 1.55 µM
Selectivity Value [BRD4(1) IC50 (μM)/CBP IC50 (μM)] (CBP bromodomain): 3

COc1ccc(CCc2nc3cc(-c4c(C)noc4C)ccn3c2NC23CC4CC(CC(C4)C2)C3)cc1 [Compound 16, N-((3s,5s,7s)-adamantan-1-yl)-7-(3,5-dimethylisoxazol-4-yl)-2-(4-methoxyphenethyl)imidazo[1,2-a]pyridine-3-amine]
IC50 (BRD4(1) bromodomain): 7.11 µM
IC50 (CBP bromodomain): 0.923 µM
Selectivity Value [BRD4(1) IC50 (μM)/CBP IC50 (μM)] (CBP bromodomain): 8

COc1ccc(CCc2nc3cc(-c4c(C)noc4C)ccn3c2NCCN2CCOCC2)cc1 [Compound 17]
IC50 (BRD4(1) bromodomain): 3.42 µM
IC50 (CBP bromodomain): 0.464 µM
Selectivity Value [BRD4(1) IC50 (μM)/CBP IC50 (μM)] (CBP bromodomain): 7

COc1ccc(CCc2nc3cc(-c4c(C)noc4C)ccn3c2NC2CCCCC2)cc1 [Compound 18, N-cyclohexyl-7-(3,5-dimethylisoxazol-4-yl)-2-(4-methoxyphenethyl)imidazo[1,2-a]pyridin-3-amine]
IC50 (BRD4(1) bromodomain): 6.59 µM
IC50 (CBP bromodomain): 0.159 µM
Selectivity Value [BRD4(1) IC50 (μM)/CBP IC50 (μM)] (CBP bromodomain): 41

COc1ccc(CCc2nc3cc(-c4c(C)noc4C)ccn3c2NC(C)C)cc1 [Compound 19, 7-(3,5-dimethylisoxazol-4-yl)-N-isopropyl-2-(4-methoxyphenethyl)imidazo[1,2-a]pyridin-3-amine]
IC50 (BRD4(1) bromodomain): 10.1 µM
IC50 (CBP bromodomain): 0.296 µM
Selectivity Value [BRD4(1) IC50 (μM)/CBP IC50 (μM)] (CBP bromodomain): 34

COc1ccc(CCc2nc3cc(-c4c(C)noc4C)ccn3c2NC(C)(C)C)cc1 [Compound 20]
IC50 (CBP bromodomain): 2.34 µM
Selectivity Value [BRD4(1) IC50 (μM)/CBP IC50 (μM)] (CBP bromodomain): >21

COc1ccc(CCc2nc3cc(-c4c(C)noc4C)ccn3c2NC2CCCCC2)cc1Cl [Compound 21, 2-(3-chloro-4-methoxyphenethyl)-N-cyclohexyl-7-(3,5-dimethylisoxazol-4-yl)imidazo[1,2-a]pyridin-3-amine]
IC50 (BRD4(1) bromodomain): 5.19 µM

CCOc1ccc(CCc2nc3cc(-c4c(C)noc4C)ccn3c2NC2CCCCC2)cc1 [Compound 22, N-cyclohexyl-7-(3,5-dimethylisoxazol-4-yl)-2-(4-ethoxyphenethyl)imidazo[1,2-a]pyridin-3-amine]
IC50 (BRD4(1) bromodomain): 6.48 µM
IC50 (CBP bromodomain): 0.214 µM
Selectivity Value [BRD4(1) IC50 (μM)/CBP IC50 (μM)] (CBP bromodomain): 30

CCCOc1ccc(CCc2nc3cc(-c4c(C)noc4C)ccn3c2NC2CCCCC2)cc1 [Compound 23]
IC50 (BRD4(1) bromodomain): 17.9 µM
IC50 (CBP bromodomain): 0.633 µM
Selectivity Value [BRD4(1) IC50 (μM)/CBP IC50 (μM)] (CBP bromodomain): 28

COc1ccc(CCc2nc3cc(-c4c(C)noc4C)ccn3c2NCc2ccccc2)cc1 [Compound 24]
IC50 (BRD4(1) bromodomain): 8.47 µM
IC50 (CBP bromodomain): 1.92 µM
Selectivity Value [BRD4(1) IC50 (μM)/CBP IC50 (μM)] (CBP bromodomain): 4

COc1ccc(CCc2nc3cc(-c4c(C)noc4C)ccn3c2Nc2ccc(Cl)cc2)cc1 [Compound 25]
IC50 (BRD4(1) bromodomain): 7.95 µM
IC50 (CBP bromodomain): 1.61 µM
Selectivity Value [BRD4(1) IC50 (μM)/CBP IC50 (μM)] (CBP bromodomain): 5

COc1ccc(Cc2nc3cc(-c4c(C)noc4C)ccn3c2NC2CCCCC2)cc1 [Compound 26]
IC50 (BRD4(1) bromodomain): 11.2 µM
IC50 (CBP bromodomain): 6.07 µM
Selectivity Value [BRD4(1) IC50 (μM)/CBP IC50 (μM)] (CBP bromodomain): 2

COc1ccc(CCCc2nc3cc(-c4c(C)noc4C)ccn3c2NC2CCCCC2)cc1 [Compound 27, N-cyclohexyl-7-(3,5-dimethylisoxazol-4-yl)-2-(3-(4-methoxyphenyl)propyl)imidazo[1,2-a]pyridin-3-amine]
IC50 (BRD4(1) bromodomain): 12.3 µM
IC50 (CBP bromodomain): 4.95 µM
Selectivity Value [BRD4(1) IC50 (μM)/CBP IC50 (μM)] (CBP bromodomain): 3

COc1ccc(CCc2nc3cc(-c4c(C)noc4C)ccn3c2NC(C)(C)CC(C)(C)C)cc1 [Compound 28, 7-(3,5-dimethylisoxazol-4-yl)-2-(4-methoxyphenethyl)-N-(2,4,4-trimethylpentan-2-yl)imidazo[1,2-a]pyridin-3-amine]
IC50 (CBP bromodomain): 20.9 µM
Selectivity Value [BRD4(1) IC50 (μM)/CBP IC50 (μM)] (CBP bromodomain): >2

CCOc1ccc(CCc2nc3cc(-c4c(C)noc4C)ccn3c2NC(C)(C)CC(C)(C)C)cc1 [Compound 29, 7-(3,5-dimethylisoxazol-4-yl)-2-(4-ethoxyphenethyl)-N-(2,4,4-trimethylpentan-2-yl)imidazo[1,2-a]pyridin-3-amine]
IC50 (BRD4(1) bromodomain): > 50 µM
IC50 (CBP bromodomain): 38.5 µM
Selectivity Value [BRD4(1) IC50 (μM)/CBP IC50 (μM)] (CBP bromodomain): >1

Cc1noc(C)c1-c1ccn2c(NC(C)(C)CC(C)(C)C)c(CCc3ccc(OC(C)C)cc3)nc2c1 [Compound 30]
Selectivity Value [BRD4(1) IC50 (μM)/CBP IC50 (μM)] (CBP bromodomain): 1

CCOc1ccc(CCc2nc3cc(-c4c(C)noc4C)ccn3c2NC2CCCCC2)cc1Cl [Compound 31]
IC50 (CBP bromodomain): 2.54 µM
Selectivity Value [BRD4(1) IC50 (μM)/CBP IC50 (μM)] (CBP bromodomain): 20

CCOc1ccc(CCc2nc3cc(-c4c(C)noc4C)ccn3c2NC(C)(C)CC(C)(C)C)cc1Cl [Compound 32]
IC50 (CBP bromodomain): 20.5 µM
Selectivity Value [BRD4(1) IC50 (μM)/CBP IC50 (μM)] (CBP bromodomain): >2

COc1ccc(CCCc2nc3cc(-c4c(C)noc4C)ccn3c2NC(C)(C)CC(C)(C)C)cc1 [Compound 35]
Selectivity Value [BRD4(1) IC50 (μM)/CBP IC50 (μM)] (CBP bromodomain): 1

Cc1sc2c(c1C)C(c1ccc(Cl)cc1)=N[C@@H](CC(=O)OC(C)(C)C)c1nnc(C)n1-2 [JQ1, reference compound]
IC50 (CBP bromodomain): > 50 µM
